According to publication PMC8454092 (European Journal of Medicinal Chemistry, 2021):

How the values were obtained:
EBOV trVLP = format: cell-based, Ebola virus; details: for IC50: read-out: EBOV trVLP IC50
SARS-CoV-2 = format: cell-based; details: for IC50: read-out: VeroE6 IC50
X4 strain of HIV-1 = details: cited from earlier work
EBOV trVLP RNA synthesis = format: cell-based, Ebola virus
SARS-CoV-2 RNA synthesis = format: cell-based
[1] = human
EBOV infection = details: in vivo; cited from earlier work
Covid-19 = details: human, in vivo; cited from earlier work
Ce-FF = format: cell-based; details: read-out: Ce-FF IC50

Q: What does the source list for `CCCCCCCCCCOCCC(=O)O` [4-Oxatetradecanoic acid, reference compound]?
A: activity against EBOV trVLP (EBOV trVLP): no inhibitory activity; anti-SARS-CoV-2 activity in Vero E6 cells (SARS-CoV-2): did not exhibit any anti-SARS-CoV-2 activity

Q: With `CCCCCCCCCCCCCC(=O)OC[C@@H]1O[C@H](n2cc(F)c(N)nc2=O)CS1` [5′-O-tetradecanoyl derivative of FTC] as the molecule, how does the “fold more activity than FTC” value (X4 strain of HIV-1) read?
A: 19 fold

Q: With `[N-]=[N+]=NCCCCCCCCCCCC(=O)O` [12-Azidododecanoic acid, reference compound] as the molecule, how does the “activity against EBOV trVLP” value (EBOV trVLP) read?
A: no inhibitory activity

Q: What about the “anti-SARS-CoV-2 activity in Vero E6 cells” value (SARS-CoV-2) of the same molecule?
A: did not exhibit any anti-SARS-CoV-2 activity

Q: What does the source list for `CCSCCCCCCCCCCCC(=O)O` [12-thioethyldodecanoic acid, reference compound]?
A: activity against EBOV trVLP (EBOV trVLP): no inhibitory activity; anti-SARS-CoV-2 activity in Vero E6 cells (SARS-CoV-2): did not exhibit any anti-SARS-CoV-2 activity

Q: Which “EBOV trVLP viral RNA synthesis” value (EBOV trVLP RNA synthesis) does the source give for `CCCCCCCCCCCCCC(=O)O[C@@H]1[C@H](O)[C@@H](CO[P@@](=O)(N[C@H](C)C(=O)OCC(CC)CC)Oc2ccccc2)O[C@@]1(C#N)c1ccc2c(N)ncnn12` [Compound 3a, (2R,3R,4R,5R)-2-(4-Aminopyrrolo[2,1-f][1,2,4]triazin-7-yl)-2-cyano-5-((((((R)-1-(2-ethylbutoxy)-1-oxopropan-2-yl)amino)(phenoxy)phosphoryl)oxy)methyl)-4-hydroxytetra-hydrofuran-3-yl tetradecanoate] here?
A: significant reduction in viral RNA synthesis

Q: And the “SARS-CoV-2 viral RNA synthesis” value (SARS-CoV-2 RNA synthesis)?
A: significant reduction in viral RNA synthesis

Q: For `CCCCCCCCCCOCCC(=O)O[C@@H]1[C@H](O)[C@@H](CO[P@@](=O)(N[C@H](C)C(=O)OCC(CC)CC)Oc2ccccc2)O[C@@]1(C#N)c1ccc2c(N)ncnn12` [Compound 3b], which “activity against EBOV trVLP” value (EBOV trVLP) is on record?
A: comparable with RDV

Q: Which “activity against EBOV trVLP” value (EBOV trVLP) does the source give for `CCSCCCCCCCCCCCC(=O)O[C@@H]1[C@H](O)[C@@H](CO[P@@](=O)(N[C@H](C)C(=O)OCC(CC)CC)Oc2ccccc2)O[C@@]1(C#N)c1ccc2c(N)ncnn12` [Compound 3e] here?
A: comparable with RDV

Q: Which “EBOV trVLP viral RNA synthesis” value (EBOV trVLP RNA synthesis) does the source give for `CCCCCCCCCCOCCC(=O)O[C@H]1[C@@H](O)[C@](C#N)(c2ccc3c(N)ncnn23)O[C@@H]1CO[P@@](=O)(N[C@H](C)C(=O)OCC(CC)CC)Oc1ccccc1` [Compound 4b, (2R,3S,4R,5R)-5-(4-Aminopyrrolo[2,1-f][1,2,4]triazin-7-yl)-5-cyano-2-((((((R)-1-(2-ethylbutoxy)-1-oxopropan-2-yl)amino)(phenoxy)phosphoryl)oxy)methyl)-4-hydroxy-tetrahydrofuran-3-yl-3-(decyloxy)propanoate] here?
A: significant reduction in viral RNA synthesis

Q: And the “activity against EBOV trVLP” value (EBOV trVLP)?
A: comparable activity with RDV

Q: What about the “SARS-CoV-2 viral RNA synthesis” value (SARS-CoV-2 RNA synthesis) of the same molecule?
A: significant reduction in viral RNA synthesis

Q: Which results are given for `CCC(CC)COC(=O)[C@@H](C)N[P@](=O)(OC[C@H]1O[C@@](C#N)(c2ccc3c(N)ncnn23)[C@H](O)[C@@H]1OC(=O)CCCCCCCCCCCN=[N+]=[N-])Oc1ccccc1` [Compound 4c, (2R,3S,4R,5R)-5-(4-Aminopyrrolo[2,1-f][1,2,4]triazin-7-yl)-5-cyano-2-((((((R)-1-(2-ethylbutoxy)-1-oxopropan-2-yl)amino)(phenoxy)phosphoryl)oxy)methyl)-4-hydroxy-tetrahydrofuran-3-yl-12-azidododecanoate]?
A: active triphosphate metabolite observed at 8 h [1]: 11.3%; active triphosphate metabolite observed at 12 h [1]: 10.04%; active triphosphate metabolite observed at 24 h [1]: 19.01%

Q: With `CCCCCCCCCCCCCC(=O)O[C@H]1[C@@H](OC(=O)CCCCCCCCCCCCC)[C@](C#N)(c2ccc3c(N)ncnn23)O[C@@H]1CO[P@@](=O)(N[C@H](C)C(=O)OCC(CC)CC)Oc1ccccc1` [Compound 5a, ((2R,3R,4R,5R)-2-(4-Aminopyrrolo[2,1-f][1,2,4]triazin-7-yl)-2-cyano-5-((((((R)-1-(2-ethylbutoxy)-1-oxopropan-2-yl)amino)(phenoxy)phosphoryl)oxy)methyl)tetrahydro-furan-3,4-diyl ditetradecanoate] as the molecule, how does the “SARS-CoV-2 viral RNA synthesis” value (SARS-CoV-2 RNA synthesis) read?
A: significant reduction in viral RNA synthesis was observed for all compounds apart from disubstituted compound 5a

Q: What does the source list for `CCCCCCCCCCCCCC(=O)O` [Myristic acid, reference compound]?
A: activity against EBOV trVLP (EBOV trVLP): no inhibitory activity; anti-SARS-CoV-2 activity in Vero E6 cells (SARS-CoV-2): did not exhibit any anti-SARS-CoV-2 activity

Q: For `CCC(CC)COC(=O)[C@H](C)N[P@](=O)(OC[C@H]1O[C@@](C#N)(c2ccc3c(N)ncnn23)[C@H](O)[C@@H]1O)Oc1ccccc1` [RDV, remdesivir, reference compound], which “EBOV trVLP viral RNA synthesis” value (EBOV trVLP RNA synthesis) is on record?
A: significant reduction in viral RNA synthesis

Q: And the mortality (EBOV infection)?
A: 53%

Q: What about the “active triphosphate metabolite observed at 12 h” value [1] of the same molecule?
A: approximately 22.2%

Q: What about the “active triphosphate metabolite observed at 24 h” value [1] of the same molecule?
A: 26.3%

Q: What about the “degradation after 1 h” value [1] of the same molecule?
A: around 13%

Q: And the “median time to recovery” value (Covid-19)?
A: 11 days

Q: And the mortality rate (Covid-19)?
A: 7.1%

Q: What about the “SARS-CoV-2 viral RNA synthesis” value (SARS-CoV-2 RNA synthesis) of the same molecule?
A: significant reduction in viral RNA synthesis

Q: For “(2R,3R,4R,5R)-2-(4-Aminopyrrolo[2,1-f][1,2,4]triazin-7-yl)-2-cyano-5-((((((R)-1-(2-ethylbutoxy)-1-oxopropan-2-yl)amino)(phenoxy)phosphoryl)oxy)methyl)-4-hydroxytetra hydrofuran-3-yl palmitate [Compound 3c]”, which IC50 (EBOV trVLP) is on record?
A: 0.5 µM

Q: What about the IC50 (Ce-FF) of the same molecule?
A: > 50 µM

Q: And the CC50 (Huh-7 cells)?
A: 27 µM

Q: And the CC50 (Vero E6 cells)?
A: > 50 µM

Q: And the IC50 (SARS-CoV-2)?
A: 4.6 µM

Q: For “(2R,3R,4R,5R)-2-(4-Aminopyrrolo[2,1-f][1,2,4]triazin-7-yl)-2-cyano-5-((((((R)-1-(2-ethylbutoxy)-1-oxopropan-2-yl)amino)(phenoxy)phosphoryl)oxy)methyl)tetrahydrofuran-3,4-diyl ditetradecanoate [Compound 5b]”, which “EBOV trVLP viral RNA synthesis” value (EBOV trVLP RNA synthesis) is on record?
A: significant reduction in viral RNA synthesis was observed for all compounds apart from disubstituted compound 5b

Q: What about the “activity against EBOV trVLP” value (EBOV trVLP) of the same molecule?
A: no inhibitory activity

Q: And the IC50 (EBOV trVLP)?
A: > 50 µM

Q: What about the IC50 (Ce-FF) of the same molecule?
A: > 50 µM

Q: What about the CC50 (Huh-7 cells) of the same molecule?
A: > 50 µM

Q: And the CC50 (Vero E6 cells)?
A: > 50 µM

Q: And the IC50 (SARS-CoV-2)?
A: > 50 µM

B1: MAB114 (antibody, chains of the INN, looked up, V domains shown)
VH: EVQLVESGGGLIQPGGSLRLSCAASGFALRMYDMHWVRQTIDKRLEWVSAVGPSGDTTYADSVKGRFAVSRENAKNSLSLQMNSLTAGDTAIYYCVRSDRGVAGLFDSWGQGILVTVSS
VL: DIQMTQSPSSLSASVGDRITITCRASQAFDNYVAWYQQRPGKVPKLLISAASALHAGVPSRFSGSGSGTHFTLTISSLQPEDVATYYCQNYNSAPLTFGGGTKVEIK
Q: With B1 as the molecule, how does the mortality (EBOV infection) read?
A: 35%
